Laboratory results published in US8859598B2, “1, 2, 4-oxadiazoles azetidine derivatives as sphingosine-1 phosphate receptors modulators” (Allergan, Inc., priority 2012, dated 2014).

Biological target: T1, human S1P1 receptor (Homo sapiens, UniProt P21453)
T1 construct: expressed in transfected cells; membranes used
Assay: GTP γ35S binding assay for S1P1 activity
Format: biochemical
Conditions: membranes of cells stably expressing the S1P1 receptor, test concentrations 0.08 to 5,000 nM
Protocol: Compounds were synthesized and tested for S1P1 activity using the GTP γ^35S binding assay. These compounds may be assessed for their ability to activate or block activation of the human S1P1 receptor in cells stably expressing the S1P1 receptor.
GTP γ^35S binding was measured in the medium containing (mM) HEPES 25, pH 7.4, MgCl2 10, NaCl 100, dithitothreitol 0.5, digitonin 0.003%, 0.2 nM GTP γ^35S, and 5 μg membrane protein in a volume of 150 μl. Test compounds were included in the concentration range from 0.08 to 5,000 nM unless indicated otherwise. Membranes were incubated with 100 μM 5′-adenylylimmidodiphosphate for 30 min, and subsequently with 10 μM GDP for 10 min on ice. Drug solutions and membrane were mixed, and then reactions were initiated by adding GTP γ^35S and continued for 30 min at 25° C. Reaction mixtures were filtered over Whatman GF/B filters under vacuum, and washed three times with 3 mL of ice-cold buffer (HEPES 25, pH7.4, MgCl2 10 and NaCl 100). Filters were dried and mixed with scintillant, and counted for ^35S activity using a β-counter. Agonist-induced GTP γ^35S binding was obtained by subtracting that in the absence of agonist. Binding data were analyzed using a non-linear regression method. In case of antagonist assay, the reaction mixture contained 10 nM […] in the presence of test antagonist at concentrations ranging from 0.08 to 5000 nM.

T1 sequence (P21453 whole entry): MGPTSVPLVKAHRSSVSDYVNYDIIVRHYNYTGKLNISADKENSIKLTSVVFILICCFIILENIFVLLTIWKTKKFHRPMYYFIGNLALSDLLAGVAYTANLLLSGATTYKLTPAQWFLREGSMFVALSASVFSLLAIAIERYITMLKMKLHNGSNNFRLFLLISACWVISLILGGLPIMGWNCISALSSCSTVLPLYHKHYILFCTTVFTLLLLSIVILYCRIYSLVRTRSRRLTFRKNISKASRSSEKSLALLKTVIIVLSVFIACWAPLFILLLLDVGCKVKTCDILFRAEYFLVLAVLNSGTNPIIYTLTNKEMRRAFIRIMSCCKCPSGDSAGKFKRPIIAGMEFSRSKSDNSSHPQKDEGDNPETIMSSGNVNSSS

O=C(O)C1CN(Cc2ccc(-c3noc(CCCCc4ccccc4)n3)cc2)C1 [Compound 1, 1-{4-[5-(4-Phenylbutyl)-1,2,4-oxadiazol-3-yl]benzyl}azetidine-3-carboxylic acid]
EC50: 483 nM
